# Patent publication US20040048791A1, “Method for treating neoplastic cells using cycloprodigiosin or salt thereof” (priority 2002, published 2004)
# “Also recorded” adds a separate entry of the source. Where a name gives a salt, the structure may show the parent alone. Read-outs that look alike come from different tables or passages of the source.
# What was measured:
# AP-1 [1] = experiment: EMSA of AP-1 DNA binding activity; assay type: cell-based
# Experimental: In addition, in order to reveal the mechanism of the suppression of AP-1 transcriptional activation, the effect of cPrG-HCl on upstream kinases, i.e., JNK and p38, was analyzed. Further, relationship between the suppression of AP-1 transcriptional activation by cPrG-HCl and the acidification of intracellular pH was studied.
# casein kinase II (CKII) = casein kinase II (CKII) (Homo sapiens, UniProt P68400); experiment: Casein kinase II activity in vitro; assay type: biochemical; settings: FIG. 12, hydrochloride
# Sequence of casein kinase II (CKII) (P68400 whole entry): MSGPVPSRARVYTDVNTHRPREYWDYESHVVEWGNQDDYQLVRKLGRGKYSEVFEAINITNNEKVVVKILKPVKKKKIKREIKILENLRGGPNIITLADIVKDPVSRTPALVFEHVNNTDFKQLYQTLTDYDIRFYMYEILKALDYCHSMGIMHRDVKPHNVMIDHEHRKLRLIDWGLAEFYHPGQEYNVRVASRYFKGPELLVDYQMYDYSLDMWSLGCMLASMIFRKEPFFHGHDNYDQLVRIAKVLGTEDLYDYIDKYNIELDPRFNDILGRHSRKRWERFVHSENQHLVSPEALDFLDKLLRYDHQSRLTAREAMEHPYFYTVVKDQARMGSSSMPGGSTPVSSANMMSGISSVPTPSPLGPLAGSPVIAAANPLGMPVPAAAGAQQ
# Text: Accordingly, in order to identify the p65 kinase which cPrG-HCl suppressed, the effect of cPrG-HCl on PKA (FIG. 13), casein kinase II (CKII) (FIG. 12), and IκB kinase (IKK) (FIG. 14) was studied in vitro.
# JNK = settings: earlier abstract of the inventors (Kamata et al., 2000); cited from earlier work
# AP-1 [2] = experiment: AP-1 luciferase reporter assay (pAPLuc) in HeLa cells; assay type: cell-based
# Experimental: In the same manner as described in Experimental example 1, HeLa cells were transfected with the AP-1 reporter gene plasmid pAPLuc. After 20 hours, the cells were pretreated with cPrG-HCl (1 μM) for 1 hour and then stimulated with TNFα (20 ng/ml) or PMA (1 μg/ml) for 4 hours, after which, luciferase activity was measured. Each activity was corrected for the amount of protein.
# IKK [3] = target: T1, IKK (Homo sapiens, UniProt O14920+O15111); experiment: IKK activation in stimulated cells (immune complex kinase assay); assay type: cell-based; settings: FIG. 2D
# T1 construct: host or cells: HeLa cells (inferred)
# T1 sequence (O15111 whole entry): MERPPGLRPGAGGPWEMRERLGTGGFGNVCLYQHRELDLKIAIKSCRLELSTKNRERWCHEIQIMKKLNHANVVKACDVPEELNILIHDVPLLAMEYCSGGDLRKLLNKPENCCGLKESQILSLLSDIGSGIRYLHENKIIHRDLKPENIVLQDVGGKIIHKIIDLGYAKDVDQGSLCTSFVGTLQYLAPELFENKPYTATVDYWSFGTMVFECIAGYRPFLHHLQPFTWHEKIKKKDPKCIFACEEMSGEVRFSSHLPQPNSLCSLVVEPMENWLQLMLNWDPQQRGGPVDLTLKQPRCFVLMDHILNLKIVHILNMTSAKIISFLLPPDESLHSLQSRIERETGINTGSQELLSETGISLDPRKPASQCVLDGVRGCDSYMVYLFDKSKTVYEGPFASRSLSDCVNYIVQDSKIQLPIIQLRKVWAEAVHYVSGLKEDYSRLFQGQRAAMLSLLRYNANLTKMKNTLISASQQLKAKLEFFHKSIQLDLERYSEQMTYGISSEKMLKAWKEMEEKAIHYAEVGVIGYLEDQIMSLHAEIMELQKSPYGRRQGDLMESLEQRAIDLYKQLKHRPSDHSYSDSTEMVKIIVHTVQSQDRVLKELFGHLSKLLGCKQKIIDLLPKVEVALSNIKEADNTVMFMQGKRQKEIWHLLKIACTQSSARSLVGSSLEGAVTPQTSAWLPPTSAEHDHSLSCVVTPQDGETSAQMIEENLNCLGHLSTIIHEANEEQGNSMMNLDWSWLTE
# T1 sequence (O14920 whole entry): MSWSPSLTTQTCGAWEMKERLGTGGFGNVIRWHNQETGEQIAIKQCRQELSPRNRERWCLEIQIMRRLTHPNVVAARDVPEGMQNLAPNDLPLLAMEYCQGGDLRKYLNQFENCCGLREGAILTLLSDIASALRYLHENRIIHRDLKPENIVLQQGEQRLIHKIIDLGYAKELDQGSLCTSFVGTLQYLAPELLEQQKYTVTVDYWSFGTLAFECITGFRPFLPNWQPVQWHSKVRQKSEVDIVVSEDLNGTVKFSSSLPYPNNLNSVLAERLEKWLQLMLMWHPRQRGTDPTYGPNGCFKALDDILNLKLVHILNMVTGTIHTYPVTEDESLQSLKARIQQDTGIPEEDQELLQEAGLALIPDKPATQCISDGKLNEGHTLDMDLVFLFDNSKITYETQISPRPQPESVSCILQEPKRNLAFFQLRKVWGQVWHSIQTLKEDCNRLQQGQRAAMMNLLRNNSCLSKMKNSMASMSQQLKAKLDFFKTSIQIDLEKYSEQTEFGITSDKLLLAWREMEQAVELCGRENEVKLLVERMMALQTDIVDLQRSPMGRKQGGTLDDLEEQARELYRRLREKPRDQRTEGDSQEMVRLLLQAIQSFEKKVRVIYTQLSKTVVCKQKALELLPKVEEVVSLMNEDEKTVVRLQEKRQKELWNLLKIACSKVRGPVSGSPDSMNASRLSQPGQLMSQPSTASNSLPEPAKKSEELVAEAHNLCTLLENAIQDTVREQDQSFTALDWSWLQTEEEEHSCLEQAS
# T1 sequence (Q9Y6K9 whole entry partner): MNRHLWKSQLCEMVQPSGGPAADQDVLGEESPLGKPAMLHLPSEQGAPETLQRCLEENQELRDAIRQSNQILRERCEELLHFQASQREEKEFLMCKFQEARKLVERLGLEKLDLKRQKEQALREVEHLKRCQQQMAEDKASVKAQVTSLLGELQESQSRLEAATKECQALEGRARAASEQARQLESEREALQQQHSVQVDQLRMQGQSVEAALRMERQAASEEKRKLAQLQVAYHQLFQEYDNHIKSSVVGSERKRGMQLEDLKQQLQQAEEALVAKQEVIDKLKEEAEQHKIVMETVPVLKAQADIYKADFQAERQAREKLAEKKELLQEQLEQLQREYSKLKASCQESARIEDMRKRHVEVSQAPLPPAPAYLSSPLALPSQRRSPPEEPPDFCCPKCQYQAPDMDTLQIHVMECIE
# Experimental: Luciferase gene reporter assay and Kinase assays of IKK: HeLa cells were transfected with the reporter plasmids described above using Lipofectin (GIBCO BRL). After 24-48 hr, the luciferase activity was determined using the Luciferase Assay System (Promega). The kinase activity of IKKα and IKKβ were analyzed by immune complex kinase assay as described previously (Oka, S., Kamata, H., Kamata, K., Yagisawa, H. and Hirata, H. (2000) FEBS Lett. 472, 196-202). The substrates was using GST-IκBα(1-55) or GST-p65(399-551).
# In order to find out the mechanism of NF-κB suppression by cPrG-HCl, the effect on the signal transduction system, which functions upstream of NF-κB, was analyzed. First, the effect of cPrG-HCl on IKK activity was examined. […] Next, the effect of cPrG-HCl on phosphorylation and degradation of IκB was analyzed by Western blotting using anti-IκB antibody (FIG. 2E). In FIG. 2E, black arrows indicate IκBα and white arrows indicate phosphorylated IκBα. […] Namely, cPrG-HCl suppressed NF-κB activation without suppressing the steps up to IκB degradation. Accordingly, nuclear translocation of NF-κB was analyzed by Western blotting using p65 and p50 which are components of NF-κB (FIG. 2F). […] Further, the state of NF-κB activation in the nucleus was analyzed by EMSA (electrophoretic mobility shift assay) (FIG. 2G). In FIG. 2G, “n. s.” means nonspecific band.
# AP-1 [4] = settings: earlier abstract of the inventors (Kamata et al., 2000); cited from earlier work
# NF-κB [5] = settings: earlier abstract of the inventors (Kamata et al., 2000); cited from earlier work
# NF-κB [6] = experiment: EMSA of NF-κB DNA binding activity in nuclear extract; assay type: cell-based
# Experimental: (§1) Electrophoretic mobility shift assay (EMSA): Nuclear extracts were prepared by the method of Schreiber, et al (Schreiber, E., Matthias, P., Muller, M. M. and Schaffner, W. (1989) Nucleic Acids Res. 17, 6419). Briefly, cells were solubilized with a buffer (10 mM HEPES-NaOH, pH 7.9, 10 mM KCl, 0.1 mM EDTA, 0.1 mM EGTA, 0.4% NP-40, 0.5 mM PMSF, 1 μg/ml aprotinin, 1 μg/ml leupeptin, 1 μg/ml pepstatin, 1 mM DTT), and then centrifuged at 10,000 rpm for 15 min. The pellets were resuspended in a buffer (20 mM HEPES-NaOH, pH 7.9, 400 mM NaCl, 1 mM EDTA, 1 mM EGTA, 1 mM PMSF, 1 μg/ml aprotinin, 1 μg/ml leupeptin, 1 μg/ml pepstatin, 1 μg/ml chymostatin, 1 μg/ml antipain, 1 mM DTT), and then centrifuged at 15,000 rpm for 15 min. […] The samples were electrophoresed on an 8% polyacrylamide gel and analyzed by an Imaging plate (Fuji Film).
# (§2) In order to find out the mechanism of NF-κB suppression by cPrG-HCl, the effect on the signal transduction system, which functions upstream of NF-κB, was analyzed. […] Next, the effect of cPrG-HCl on phosphorylation and degradation of IκB was analyzed by Western blotting using anti-IκB antibody (FIG. 2E). […] Accordingly, nuclear translocation of NF-κB was analyzed by Western blotting using p65 and p50 which are components of NF-κB (FIG. 2F). […] Further, the state of NF-κB activation in the nucleus was analyzed by EMSA (electrophoretic mobility shift assay) (FIG. 2G). […]
# NF-κB [7] = experiment: Nuclear translocation of NF-κB (Western blotting of p65 and p50); assay type: cell-based
# Experimental: as §1, with “Film). […]” for “Film).”
# as §2
# IKK [8] = target: T1, IKK; settings: earlier abstract of the inventors (Kamata et al., 2000); cited from earlier work
smiles,measurement,setting,value
"COC1=CC(c2ccc[nH]2)=N/C1=C\c1[nH]c(C)c2c1C(C)CCC2 (stereo not shown) [cPrG-HCl, Cycloprodigiosin hydrochloride]",DNA binding activity of AP-1,AP-1 [1],no inhibitory effect
same,effect on casein kinase II (CKII) activity,casein kinase II (CKII),does not directly suppress; also recorded: no suppressive effect
same,JNK activation,JNK,no suppressive effect
same,AP-1 transcriptional activity,"AP-1 [2]; HeLa cells, 1 μM, TNFα (20 ng/ml) or PMA (1 μg/ml), FIG. 5",significantly suppressed
same,PMA-induced AP-1 transcriptional activation,AP-1 [2]; in the presence of imidazole,suppressed
same,TNFα-induced IKK activation,IKK [3],did not suppressed
same,gene expression induction by AP-1,AP-1 [4],significantly suppressed
same,nuclear translocation of NF-κB,NF-κB [5],no suppressive effect
same,DNA binding activation of NF-κB,"NF-κB [6]; PMA stimulation, FIG. 3B",inhibited neither
same,DNA binding activity of NF-κB,"NF-κB [6]; TNFα stimulation, FIG. 2G",did not suppress
same,nuclear translocation of NF-κB,"NF-κB [7]; PMA stimulation, FIG. 3B",inhibited neither
same,nuclear translocation of NF-κB,"NF-κB [7]; TNFα stimulation, FIG. 2F",not inhibited
same,IKK activation,IKK [8],no suppressive effect
